Experimental data as given in patent US8895602B1, “6-pyrazolylamido-3-substituted azabicyclo[3.1.0]hexane compounds as calcium channel inhibitors” (Korea Institute of Science and Technology, priority 2013, dated 2014).

Legend:
[1] = tested on: human prostate carcinoma (LNCaP) cells; experiment: Anticancer screening, SRB assay, LNCaP; format: cell-based; conditions: 48 hours incubation, concentration not given
Protocol: (§1) Anticancer Effect Screening Test
(§2) All the cancer cells are human-derived tumor cells and were acquired from the Korean Cell Line Bank.
(§3) 2) Measurement of Anticancer Activity
(§4) After incubation in a CO2 incubator for 24 hours, the culture medium was removed and 100 μL of the test compound which was diluted 4-fold was added. After incubation for 48 hours, the cells were fixed by adding 100 μL of formalin solution. Then, the cells were washed 5 times with distilled water and dried at room temperature. After adding 100 μL of 0.4% SRB solution and keeping at room temperature for 30 minutes, the cells were washed 5 times with 1% acetic acid and dried at room temperature.
(§5) To evaluate the anticancer activity of the test compound against the cancer cells, the GI50 value was calculated according to Equation 1 or 2. Anticancer activity (%)=[…] Equation 1
(§6) In Equation 1, T0 represents the number of cells before adding the test compound and T2 represents the number of cells after adding the test compound and incubating for 48 hours. Anticancer activity (%)=[…] Equation 2
(§7) The inhibition of cancer cell growth by the test compound (% inhibition) was determined by data regression using the Lotus program from the values calculated according to Equation 1 and the IC50 value was calculated from the % inhibition.

[2] = tested on: human esophageal carcinoma (KYSE410) cells; experiment: Anticancer screening, SRB assay, KYSE410; format: cell-based; conditions: KYSE410, 48 hours incubation, concentration not given
Protocol: as §1, §2, §3, §4, §5, §6, §7

[3] = tested on: human glioma (U87-MG) cells; experiment: Anticancer screening, SRB assay, U87-MG; format: cell-based; conditions: 48 hours incubation, concentration not given
Protocol: as §1, §2, §3, §4, §5, §6, §7

[4] = tested on: human lung carcinoma (A-549) cells; experiment: Anticancer screening, SRB assay, A-549; format: cell-based; conditions: A 549, 48 hours incubation, concentration not given
Protocol: as §1, §2, §3, §4, §5, §6, §7

[5] = tested on: human liver carcinoma (HepG2) cells; experiment: Anticancer screening, SRB assay, HepG2; format: cell-based; conditions: HepG2, 48 hours incubation, concentration not given
Protocol: as §1, §2, §3, §4, §5, §6, §7

[6] = tested on: human fibroblastoma (HT-1080) cells; experiment: Anticancer screening, SRB assay, HT-1080; format: cell-based; conditions: HT1080, 48 hours incubation, concentration not given
Protocol: as §1, §2, §3, §4, §5, §6, §7

[7] = tested on: human breast cancer (MCF-7) cells; experiment: Anticancer screening, SRB assay, MCF-7; format: cell-based; conditions: MCF-7, 48 hours incubation, concentration not given
Protocol: as §1, §2, §3, §4, §5, §6, §7

[8] = biological target: T1, α1G T-type calcium channel (Homo sapiens, UniProt O43497); experiment: Antagonistic activity against T-type calcium channel (FDSS6000 / whole-cell patch clamp in HEK293 cells), α1G; format: cell-based
T1 construct: host or cells: HEK293
Protocol: (§8) Test of Antagonistic Activity Against T-Type Calcium Channel
Then, as secondary screening, the effective inhibitory concentration IC50 for human HEK293 cells was obtained by measuring the potential of Ca^2+.
1) Measurement of T-Type Calcium Channel Activity Using FDSS6000
Subsequently, 10 minutes prior to the FDSS6000 measurement, the cells were washed with HEPES buffer containing 10 mM CaCl2 once and the final volume was adjusted to 81 μL. Separately from the 96-well plate with the cells, two 96-well drug plates were prepared, one containing KCl (final concentration 75 mM) for activating the T-type calcium channel and the other containing the blocking agent (test compound). […] For the FDSS6000 measurement, after baseline recording for 20 seconds, the cells were pretreated with the test compound for 75 seconds and the change in intracellular calcium concentration induced by KCl was measured. The % inhibition by the test compound was calculated as integrated values of the 340/380 ratio relative to the untreated control group. […]
For calcium imaging, the cells were selectively exposed to light of excitation wavelengths (340 nm and 380 nm) with four xenon lamps installed in the FDSS6000 device using a computer-controlled filter wheel. The emitted fluorescence light that passed through a 515 nm long-pass filter was passed through a freezing CCD camera mounted in the device. […]

[9] = biological target: α1H T-type calcium channel (Homo sapiens, UniProt O95180); experiment: Antagonistic activity against T-type calcium channel, α1H; format: cell-based
Protocol: as §8
2) Measurement of T-Type Calcium Channel Activity in HEK293 Cells by Whole-Cell Patch Clamp Electrophysiology
The culture medium was replaced with a fresh one every 3-4 days and the cells were subcultured every week. […] The T-type calcium channel current at single cell level was measured by whole-cell patch clamp electrophysiology using an EPC-9 amplifier (HEKA, Germany). For the T-type calcium channel activity measurement, an extracellular solution (140 mM NaCl, 2 mM CaCl2, 10 mM HEPES, pH 7.4) and an intracellular solution (130 mM KCl, 10 mM HEPES, 11 mM EGTA, 5 mM MgATP, pH 7.4) were used. […] Thereafter, the cell membrane potential was fixed to −100 mV and the inward current evoked by the T-type calcium channel activity was measured every 10 seconds at hypopolarization with −30 mV (50 ms duration). Each compound was dissolved in 100% dimethyl sulfoxide (DMSO) to make a 10 mM stock solution. […] More specifically, the cells were treated with each compound together with the extracellular solution for 30-60 seconds and the % inhibition was determined by calculating the inhibition of peak current induced by the compound.

[10] = spinal nerve ligation model; cited from earlier work

T1 sequence (O43497 whole entry): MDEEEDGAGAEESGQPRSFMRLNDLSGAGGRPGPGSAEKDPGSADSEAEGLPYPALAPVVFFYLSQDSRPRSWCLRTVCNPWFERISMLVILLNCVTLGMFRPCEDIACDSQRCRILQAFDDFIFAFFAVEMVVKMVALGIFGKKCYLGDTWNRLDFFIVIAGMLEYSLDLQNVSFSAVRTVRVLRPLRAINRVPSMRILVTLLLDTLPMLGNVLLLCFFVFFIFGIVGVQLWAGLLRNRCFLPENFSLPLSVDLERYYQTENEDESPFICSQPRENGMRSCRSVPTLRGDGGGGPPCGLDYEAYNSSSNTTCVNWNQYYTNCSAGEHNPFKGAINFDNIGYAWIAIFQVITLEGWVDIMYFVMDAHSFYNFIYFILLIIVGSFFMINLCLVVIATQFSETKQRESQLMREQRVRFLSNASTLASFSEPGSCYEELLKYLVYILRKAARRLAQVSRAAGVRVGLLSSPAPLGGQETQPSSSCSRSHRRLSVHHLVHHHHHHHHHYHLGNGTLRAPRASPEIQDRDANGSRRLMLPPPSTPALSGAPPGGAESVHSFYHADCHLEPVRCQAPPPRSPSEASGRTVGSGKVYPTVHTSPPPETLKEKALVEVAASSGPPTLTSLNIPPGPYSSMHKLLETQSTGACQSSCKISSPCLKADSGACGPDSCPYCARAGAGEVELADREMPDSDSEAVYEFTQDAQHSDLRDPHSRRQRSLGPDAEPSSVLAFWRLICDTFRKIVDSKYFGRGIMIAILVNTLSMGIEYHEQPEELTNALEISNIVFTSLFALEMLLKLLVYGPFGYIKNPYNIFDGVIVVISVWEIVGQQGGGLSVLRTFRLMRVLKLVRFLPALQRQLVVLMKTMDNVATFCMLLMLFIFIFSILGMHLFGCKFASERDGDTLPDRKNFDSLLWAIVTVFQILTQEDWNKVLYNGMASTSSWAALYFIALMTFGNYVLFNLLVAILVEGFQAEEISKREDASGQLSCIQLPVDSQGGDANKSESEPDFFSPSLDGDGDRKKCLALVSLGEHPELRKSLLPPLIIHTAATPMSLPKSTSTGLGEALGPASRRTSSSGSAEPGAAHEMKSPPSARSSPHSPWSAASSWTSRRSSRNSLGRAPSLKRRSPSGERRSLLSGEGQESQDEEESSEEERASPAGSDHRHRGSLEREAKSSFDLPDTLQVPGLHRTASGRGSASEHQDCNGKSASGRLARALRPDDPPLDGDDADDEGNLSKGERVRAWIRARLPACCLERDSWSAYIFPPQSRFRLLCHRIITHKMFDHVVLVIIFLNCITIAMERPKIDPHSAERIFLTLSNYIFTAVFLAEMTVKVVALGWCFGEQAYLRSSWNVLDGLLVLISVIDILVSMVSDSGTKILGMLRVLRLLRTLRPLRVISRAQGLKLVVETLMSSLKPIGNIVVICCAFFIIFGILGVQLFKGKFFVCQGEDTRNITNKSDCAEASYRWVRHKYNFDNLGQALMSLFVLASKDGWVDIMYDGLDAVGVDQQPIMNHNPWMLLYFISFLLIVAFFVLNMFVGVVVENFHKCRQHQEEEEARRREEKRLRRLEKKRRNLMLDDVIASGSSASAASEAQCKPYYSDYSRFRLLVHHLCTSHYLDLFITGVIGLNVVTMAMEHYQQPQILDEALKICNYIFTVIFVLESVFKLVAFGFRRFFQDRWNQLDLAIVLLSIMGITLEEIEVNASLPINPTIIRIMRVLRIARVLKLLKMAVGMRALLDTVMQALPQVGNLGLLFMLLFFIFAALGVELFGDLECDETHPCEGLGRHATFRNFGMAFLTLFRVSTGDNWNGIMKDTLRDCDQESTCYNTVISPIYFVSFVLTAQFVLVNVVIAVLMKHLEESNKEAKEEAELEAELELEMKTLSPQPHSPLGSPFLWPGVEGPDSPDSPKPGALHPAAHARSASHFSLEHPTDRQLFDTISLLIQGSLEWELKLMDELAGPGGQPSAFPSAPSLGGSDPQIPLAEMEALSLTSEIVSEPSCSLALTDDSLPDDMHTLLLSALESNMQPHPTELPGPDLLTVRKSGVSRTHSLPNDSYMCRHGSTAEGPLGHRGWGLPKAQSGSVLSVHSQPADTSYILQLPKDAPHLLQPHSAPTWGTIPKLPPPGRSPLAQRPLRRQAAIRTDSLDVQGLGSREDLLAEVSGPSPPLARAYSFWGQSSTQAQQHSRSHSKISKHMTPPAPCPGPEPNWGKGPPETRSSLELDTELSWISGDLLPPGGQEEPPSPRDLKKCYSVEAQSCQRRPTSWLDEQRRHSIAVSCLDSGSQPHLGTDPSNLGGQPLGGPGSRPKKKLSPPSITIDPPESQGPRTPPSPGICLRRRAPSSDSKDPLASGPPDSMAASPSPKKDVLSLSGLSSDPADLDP
α1H T-type calcium channel, sequence (O95180 whole entry): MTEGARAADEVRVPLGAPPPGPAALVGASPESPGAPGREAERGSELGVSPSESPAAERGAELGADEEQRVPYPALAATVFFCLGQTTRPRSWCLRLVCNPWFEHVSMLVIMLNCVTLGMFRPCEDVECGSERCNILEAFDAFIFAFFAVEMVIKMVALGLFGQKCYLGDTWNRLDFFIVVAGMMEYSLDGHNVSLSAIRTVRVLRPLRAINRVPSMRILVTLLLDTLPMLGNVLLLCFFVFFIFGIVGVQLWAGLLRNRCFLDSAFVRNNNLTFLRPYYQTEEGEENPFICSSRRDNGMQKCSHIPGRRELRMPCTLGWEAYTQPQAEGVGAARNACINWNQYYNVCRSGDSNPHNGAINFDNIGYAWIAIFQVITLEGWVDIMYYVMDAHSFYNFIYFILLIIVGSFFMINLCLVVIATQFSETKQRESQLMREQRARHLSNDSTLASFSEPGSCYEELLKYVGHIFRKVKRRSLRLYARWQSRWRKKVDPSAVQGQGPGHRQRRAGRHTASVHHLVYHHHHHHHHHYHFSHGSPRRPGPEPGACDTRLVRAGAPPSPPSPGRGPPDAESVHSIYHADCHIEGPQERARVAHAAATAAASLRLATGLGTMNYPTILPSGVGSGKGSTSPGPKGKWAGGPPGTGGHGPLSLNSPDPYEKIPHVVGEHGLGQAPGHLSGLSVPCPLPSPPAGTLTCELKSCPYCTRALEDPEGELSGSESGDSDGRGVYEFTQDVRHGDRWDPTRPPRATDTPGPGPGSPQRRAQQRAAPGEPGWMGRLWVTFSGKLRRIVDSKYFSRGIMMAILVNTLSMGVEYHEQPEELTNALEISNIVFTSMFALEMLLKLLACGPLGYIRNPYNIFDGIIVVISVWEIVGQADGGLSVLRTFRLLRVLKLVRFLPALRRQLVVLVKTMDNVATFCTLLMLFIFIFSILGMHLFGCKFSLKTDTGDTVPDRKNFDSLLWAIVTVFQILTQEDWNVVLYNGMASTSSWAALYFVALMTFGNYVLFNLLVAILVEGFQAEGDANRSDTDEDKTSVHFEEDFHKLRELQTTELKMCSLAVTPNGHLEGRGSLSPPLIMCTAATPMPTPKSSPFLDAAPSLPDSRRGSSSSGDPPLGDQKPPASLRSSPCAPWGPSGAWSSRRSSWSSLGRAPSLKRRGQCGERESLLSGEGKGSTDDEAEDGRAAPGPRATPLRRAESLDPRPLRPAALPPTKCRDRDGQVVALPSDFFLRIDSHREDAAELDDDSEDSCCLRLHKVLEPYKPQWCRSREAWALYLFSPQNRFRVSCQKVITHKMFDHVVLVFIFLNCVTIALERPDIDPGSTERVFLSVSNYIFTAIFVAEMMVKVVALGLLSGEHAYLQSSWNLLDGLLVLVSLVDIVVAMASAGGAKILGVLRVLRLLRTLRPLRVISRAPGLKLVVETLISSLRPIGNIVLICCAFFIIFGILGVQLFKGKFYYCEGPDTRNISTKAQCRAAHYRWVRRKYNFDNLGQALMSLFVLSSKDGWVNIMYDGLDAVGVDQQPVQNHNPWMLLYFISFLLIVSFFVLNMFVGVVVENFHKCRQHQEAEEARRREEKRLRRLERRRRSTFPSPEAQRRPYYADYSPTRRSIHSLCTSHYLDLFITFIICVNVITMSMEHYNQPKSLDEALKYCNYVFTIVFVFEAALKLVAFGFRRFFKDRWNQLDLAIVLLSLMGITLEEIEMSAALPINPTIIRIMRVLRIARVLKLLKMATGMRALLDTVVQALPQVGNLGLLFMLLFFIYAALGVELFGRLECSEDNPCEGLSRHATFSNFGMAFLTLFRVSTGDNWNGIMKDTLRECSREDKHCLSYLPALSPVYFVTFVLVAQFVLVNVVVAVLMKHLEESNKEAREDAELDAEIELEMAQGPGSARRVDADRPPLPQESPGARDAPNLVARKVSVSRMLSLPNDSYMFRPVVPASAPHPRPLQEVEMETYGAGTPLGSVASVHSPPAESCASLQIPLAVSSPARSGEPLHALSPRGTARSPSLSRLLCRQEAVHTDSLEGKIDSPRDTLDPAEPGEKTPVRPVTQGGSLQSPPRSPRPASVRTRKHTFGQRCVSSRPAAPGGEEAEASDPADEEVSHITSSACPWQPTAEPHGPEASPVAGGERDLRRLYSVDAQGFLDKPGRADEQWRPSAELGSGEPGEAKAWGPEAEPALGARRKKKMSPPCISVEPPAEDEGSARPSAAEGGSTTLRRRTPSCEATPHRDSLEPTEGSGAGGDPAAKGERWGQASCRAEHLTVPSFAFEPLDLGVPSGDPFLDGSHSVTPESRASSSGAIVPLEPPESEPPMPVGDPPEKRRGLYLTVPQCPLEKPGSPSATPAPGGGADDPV

| SMILES | % inhibition for cancer cells LNCaP [1] [%] | % inhibition for cancer cells KYSE410 [2] [%] | % inhibition for cancer cells U87-MG [3] [%] | % inhibition for cancer cells A 549 [4] [%] | % inhibition for cancer cells HepG2 [5] [%] | % inhibition for cancer cells HT1080 [6] [%] | % inhibition for cancer cells MCF-7 [7] [%] | inhibition at 10 µM [8] [%] | inhibition at 10 µM [9] [%] | effect on mechanically and thermally induced pain [10] |
| --- | --- | --- | --- | --- | --- | --- | --- | --- | --- | --- |
| CC(C)Cc1cc(CNC(=O)C2C3CN(CCC(C)(C)C)CC32)nn1-c1ccccc1 (centres unmarked) [Compound 1, 3-[3-(3,3-Dimethylbutyl)-3-azabicyclo[3.1.0]hexane-6-carboxamido]methyl-5-isobutyl-1-phenyl-1H-pyrazole] | 34.74 | 62.50 | 48.10 | 94.52 | 87.91 | 62.86 | 94.86 | – | – | – |
| CC(C)Cc1cc(CNC(=O)C2C3CN(Cc4ccccc4)CC32)nn1-c1ccccc1 (centres unmarked) [Compound 2, 3-(3-Benzyl-3-azabicyclo[3.1.0]hexane-6-carboxamido)methyl-5-isobutyl-1-phenyl-1H-pyrazole] | 84.90 | 88.75 | 86.45 | – | – | 87.79 | – | – | – | – |
| CC(C)Cc1cc(CNC(=O)C2C3CN(CCc4ccc(C(F)(F)F)cc4)CC32)nn1-c1ccccc1 (centres unmarked) [Compound 3, 5-Isobutyl-1-phenyl-3-{3-[4-(trifluoromethyl)phenylethyl]-3-azabicyclo[3.1.0]hexane-6-carboxamido}methyl-1H-pyrazole] | 92.29 | 92.33 | 89.21 | 75.64 | 67.82 | 87.64 | 85.44 | 60.5 | 64.6 | – |
| CC(C)Cc1cc(CNC(=O)C2C3CN(C(=O)c4ccccc4)CC32)nn1-c1ccccc1 (centres unmarked) [Compound 4, 3-(3-Benzoyl-3-azabicyclo[3.1.0]hexane-6-carboxamido)methyl-5-isobutyl-1-phenyl-1H-pyrazole] | 73.31 | 56.84 | 56.49 | 94.52 | 89.44 | 75.39 | 95.00 | – | – | – |
| CC(C)Cc1cc(CNC(=O)C2C3CN(C(=O)Cc4ccccc4)CC32)nn1-c1ccccc1 (centres unmarked) [Compound 5, 5-Isobutyl-1-phenyl-3-[3-(2-phenylacetyl)-3-azabicyclo[3.1.0]hexane-6-carboxamido]methyl-1H-pyrazole] | 62.24 | 48.62 | 45.39 | 94.61 | 89.16 | 67.10 | 95.24 | 81 | 89.9 | – |
| CC(C)Cc1cc(C(=O)NCC2C3CN(CCC(C)(C)C)CC23)nn1-c1ccccc1 (centres unmarked) [Compound 7, 3-{2-[3-(3,3-Dimethylbutyl)-3-azabicyclo[3.1.0]hexane-6-yl]methyl}carbamoyl-5-isobutyl-1-phenyl-1H-pyrazole] | 49.98 | 86.46 | 89.43 | 93.14 | 98.18 | 88.79 | 94.67 | – | – | – |
| Cc1ccc(NC(=O)c2ccc(CN3CCN(C)CC3)cc2)cc1Nc1nccc(-c2cccnc2)n1 [Gleevec, reference compound] | 82.56 | 75.92 | 86.51 | 94.17 | 90.81 | 92.04 | 95.19 | – | – | – |
| C#Cc1cccc(Nc2ncnc3cc(OCCOC)c(OCCOC)cc23)c1 [Tarceva, reference compound] | 47.12 | 36.30 | 55.96 | – | – | 83.07 | – | – | – | – |
| CCC1(C)CC(=O)NC1=O (centres unmarked) [ethosuximide] | – | – | – | – | – | – | – | – | – | inhibit mechanically and thermally induced pain in a dose-dependent manner |
| COCC(=O)O[C@]1(CCN(C)CCCc2nc3ccccc3[nH]2)CCc2cc(F)ccc2[C@@H]1C(C)C [mibefradil] | – | – | – | – | – | – | – | – | – | inhibit mechanically and thermally induced pain in a dose-dependent manner |
